One test concerns the target T1, serotonin S2 receptor (Rattus norvegicus, UniProt P14842).
T1 construct: The receptor fraction prepared from the cortex was molten and suspended; from tissue; host or cells: cerebral cortex of SD rats (membrane fraction)
Kind of test: serotonin S2 receptor binding test ([3H] Ketanserin Binding Test). Also on record: species or system SD rats. The conditions noted are these: 1 nM [3H] Ketanserin, rat cortex, 37° C., 15 minutes. The method, then:
(§1) The compounds of the present invention were subjected to each of serotonin S2 receptor binding test, dopamine D2 receptor binding test and adrenergic α1 receptor binding test.
(§2) The following reagents were used in this test.
(§3) These reagents and samples were each dissolved in 10% ethanol before use. Among them, water-insoluble compounds were each dissolved in ethanol and the obtained solution was diluted with distilled water to an ethanol concentration of 10%. Further, Methylsergide maleate was used in a state dissolved in distilled water.
(§4) SD rats aged 6 to 8 weeks were used.
(§5) SD rats were each slaughtered with a guillotine to extirpate its cerebrum. The cortex and corpus striatum were separated from the cerebrum. The former was used in serotonin S2 receptor binding test and adrenergic α1, receptor binding test, while the latter was used in dopamine D2 receptor binding test.
The cortex was homogenized in a 0.32 M sucrose solution in an amount ten times the wet weight of the cortex by the use of a teflon glass homogenizer and the resulting mixture was centrifuged at 10,000×G for 20 minutes. The obtained sediment was suspended in 50 mM Tris hydrochloride (pH 7.4) in an amount ten times the initial wet weight of the cortex by the use of a histocothrom, and the obtained suspension was centrifuged at 10,000×G for 20 minutes. This operation was repeated twice. The obtained sediment was suspended in 50 mM Tris hydrochloride (pH 7.4) in an amount 20 times the initial wet weight of the cortex by the use of a histocothrom. The suspension thus prepared was used as a receptor fraction. This receptor fraction was stored at -80° C. until use.
4. [^3 ] Ketanserin Binding Test
The receptor fraction prepared from the cortex was molten and suspended by the use of a histocothrom. The resulting suspension was incubated together with 1 nM-[^3 H] Ketanserin at 37° C. for 15 minutes. The resulting reaction system was filtered through a Whatman GF/B glass filter with an MR-30R type cell harvester mfd. by Blandel. The resulting filter was washed twice with 5 ml of 50 mM Tris hydrochloride (ph 7.4) cooled with ice and the radioactivity of the Ketanserin bound the receptor was determined by the use of a liquid scintillation counter with 5 ml of ACS II. The binding detected in the presence of […] of Methylsergide was regarded as nonspecific binding.
(§6) Each IC50 value was calculated by the probit method and each Ki value was determined by the following formula: [formula]
(§7) In the above formula, C represents the concentration of radioligand, and Kd represents the affinity of radioligand for the receptor as determined by the Scatchard analysis.

A further test deals with T2, dopamine D2 receptor (Rattus norvegicus, UniProt P61169).
T2 construct: the receptor fraction prepared from the corpus striatum was molten and suspended; from tissue; host or cells: corpus striatum of SD rats (membrane fraction)
T2 sequence (P61169 whole entry): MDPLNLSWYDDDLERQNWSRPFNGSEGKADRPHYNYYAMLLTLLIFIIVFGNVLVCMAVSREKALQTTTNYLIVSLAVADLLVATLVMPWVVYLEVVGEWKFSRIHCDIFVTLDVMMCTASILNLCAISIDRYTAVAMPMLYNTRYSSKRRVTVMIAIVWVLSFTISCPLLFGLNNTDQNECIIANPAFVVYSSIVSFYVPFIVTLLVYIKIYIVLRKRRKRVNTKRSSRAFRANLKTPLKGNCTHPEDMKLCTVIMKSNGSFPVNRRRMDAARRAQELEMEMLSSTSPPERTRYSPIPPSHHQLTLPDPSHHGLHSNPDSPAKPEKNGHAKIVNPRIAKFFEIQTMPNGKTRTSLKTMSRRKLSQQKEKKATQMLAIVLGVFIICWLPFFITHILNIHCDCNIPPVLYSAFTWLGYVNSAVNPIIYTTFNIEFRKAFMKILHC
Nature of the test: dopamine D2 receptor binding test ([3H] Spiperone Binding Test). Further details: species or system SD rats. The conditions noted are these: 1 nM [3H] Spiperone, rat corpus striatum, room temperature, 60 minutes. The method, then:
as §1, §2, §3, §4, §5
On the other hand, the corpus striatum was homogenized in a 0.32 M sucrose solution in an amount ten times the wet weight of the corpus striatum by the use of a teflon glass homogenizer and the obtained mixture was centrifuged at 1,000×G for 20 minutes. The obtained supernatant was centrifuged at 10,000×G for 20 minutes. The obtained sediments were suspended together in 50 mM Tris hydrochloride (pH 7.4) in an amount ten times the initial wet weight of the corpus striatum by the use of a histocothrom, and the obtained suspension was centrifuged at 10,000×G for 20 minutes. This operation was repeated thrice. The resulting sediment was suspended in 50 mM Krebs-Tris (pH 7.4) in an amount 100 times the initial wet weight of the corpus striatum by the use of a histocothrom. The obtained suspension was used as a receptor fraction. This receptor fraction was stored at -80° C. until use.
as §6, §7
5. [^3 H] Spiperone Binding Test
This test was conducted in the same manner as that of the binding test of [^3 H] Ketanserin except that the receptor fraction prepared from the corpus striatum was molten and suspended with a histocothrom, and the obtained suspension was incubated together with 1 nM-[^3 H], Spiperone at room temperature for 60 minutes and that the binding detected in the presence of 10 μl of Spiperone was regarded as nonspecific binding.

[1] abbreviates: read-out: Ki value, dopamine D2 receptor.

The record followed here is patent US6281214A, “Biphenyl derivatives” (Eisai Co., Ltd, priority 1994, dated 2001).

Where two headings read alike, the source gives them in different places.

A word on the Ki: it is the equilibrium dissociation constant of an inhibitor or competing ligand from its target.

T1 sequence (P14842 whole entry): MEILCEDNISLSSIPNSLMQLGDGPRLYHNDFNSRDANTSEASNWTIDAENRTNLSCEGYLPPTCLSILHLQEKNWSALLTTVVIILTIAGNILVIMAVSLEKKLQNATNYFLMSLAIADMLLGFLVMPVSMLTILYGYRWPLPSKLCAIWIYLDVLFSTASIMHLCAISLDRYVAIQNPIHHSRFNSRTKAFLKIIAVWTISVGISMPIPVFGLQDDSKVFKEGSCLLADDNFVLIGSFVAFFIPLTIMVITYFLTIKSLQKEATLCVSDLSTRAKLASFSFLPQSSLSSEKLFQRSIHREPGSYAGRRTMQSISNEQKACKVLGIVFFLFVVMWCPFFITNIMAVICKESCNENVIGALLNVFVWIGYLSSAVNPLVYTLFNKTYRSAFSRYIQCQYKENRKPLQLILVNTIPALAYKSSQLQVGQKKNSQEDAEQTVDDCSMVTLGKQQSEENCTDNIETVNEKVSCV

As for `CCC(F)c1cc(N2CCN(CCO)CC2)cc(-c2ccccc2Cl)c1Cl` (centres unmarked) [Example 23, 1-(2-Hydroxyethyl)-4-[3-(2-chlorophenyl)-4-chloro-5-(1-fluoropropyl)]phenylpiperazine], the Ki amounted to 51.2 nM at serotonin S2 receptor and 7.22 nM on dopamine D2 receptor (setting [1]).

Consider `CCN1CCN(c2cc(NS(=O)(=O)c3ccccc3)c(OC)c(-c3ccccc3)c2)CC1` [Example 120], for which the values for the Ki at serotonin S2 receptor and at dopamine D2 receptor (setting [1]) were 17.4 nM and 0.36 nM, respectively.

With `CCS(=O)(=O)c1cc(N2CCN(Cc3ccccn3)CC2)cc(-c2ccc(F)cc2)c1OC` [Example 199, 1-(2-Pyridylmethyl)-4-[3-(4-fluorophenyl)-4-methoxy-5-ethanesulfonyl]phenylpiperazine], the Ki came out at 63.2 nM at serotonin S2 receptor and 51.5 nM at dopamine D2 receptor (setting [1]).

Consider `CCS(=O)(=O)c1cc(N2CCNCC2)cc(-c2ccc(F)cc2)c1OC` [Example 202, 1-[3-(4-Fluorophenyl)-4-methoxy-5-ethanesulfonyl]phenylpiperazine], for which the Ki was determined as 6.33 nM at serotonin S2 receptor and 90.5 nM at dopamine D2 receptor (Ki value, dopamine D2 receptor).

Turning to `CCS(=O)(=O)c1cc(N2CCN(CCF)CC2)cc(-c2ccc(F)cc2)c1OC` [Example 203, 1-(2-Fluoroethyl)-4-[3-(4-fluorophenyl)-4-methoxy-5-ethanesulfonyl]phenylpiperazine], the Ki at serotonin S2 receptor was 54.8 nM.

Consider `C/C=C/c1cc(N2CCN(CC)CC2)cc(-c2ccccc2Cl)c1Cl` [Example 204], for which the Ki is 187 nM at serotonin S2 receptor and 14.4 nM on dopamine D2 receptor (setting [1]).

As to `CCC(Cl)c1cc(N2CCN(CC)CC2)cc(-c2ccccc2Cl)c1Cl` (centres unmarked) [Example 205, 1-Ethyl-4-[3-(2-chlorophenyl)-4-chloro-5-(1-chlorophenyl0phenylpiperazine)]phenylpiperazine], the Ki at serotonin S2 receptor amounted to 51.2 nM; on dopamine D2 receptor (setting [1]) it was 2.83 nM.

Turning to `CC[C@@H](F)c1cc(N2CCN(C)CC2)cc(-c2ccccc2CF)c1Cl` [Example 209], the Ki at serotonin S2 receptor came to 42.7 nM; on dopamine D2 receptor (setting [1]), 3.9 nM.

As to `CC[C@H](F)c1cc(N2CCN(C)CC2)cc(-c2ccccc2CF)c1Cl` [Example 210, 1-Methyl-4-{3-(2-fluoromethylphenyl)-4-chloro-5-[1-(S)-fluoropropyl]}phenylpiperazine], the Ki was 6.25 nM on serotonin S2 receptor and 16.1 nM at dopamine D2 receptor (setting [1]).

In the case of `CC[C@@H](F)c1cc(N2CCN(CC)CC2)cc(-c2ccc(F)cc2C)c1Cl` [Example 212, 1-Ethyl-4-{3-[2-(4-fluorotolyl)]-4-chloro-5-[1-(R)-fluorophenyl]}phenylpiperazine], the Ki turned out to be 1020 nM on serotonin S2 receptor and 3.9 nM at dopamine D2 receptor (setting [1]).

Consider `CCC(F)c1cc(N2CCN(CC)CC2)cc(-c2c(C)cccc2C)c1Cl` (centres unmarked) [Example 215, 1-Ethyl-4-[3-(2,6-xylyl)-4-chloro-5-(1-fluoropropyl)]phenylpiperazine], for which the Ki on serotonin S2 receptor was 15.3 nM; at dopamine D2 receptor (setting [1]), 2.28 nM.

Regarding `CC[C@@H](F)c1cc(N2CCN(CC)CC2)cc(-c2ccccc2C(F)(F)F)c1Cl` [Example 216, 1-Ethyl-4-{3-(2-trifluoromethylphenyl)-4-chloro-5-[1-(R)-fluoropropyl]}phenylpiperazine], the figures for the Ki on serotonin S2 receptor and on dopamine D2 receptor (setting [1]) were 79 nM and 11.3 nM, respectively.

As for `CCc1ccccc1-c1cc(N2CCN(CC)CC2)cc(C(F)CC)c1Cl` (centres unmarked) [Example 217, 1-Ethyl-4-[3-(2-ethylphenyl)-4-chloro-5-(1-fluoropropyl)]phenylpiperazine], the Ki worked out at 25.5 nM on serotonin S2 receptor and 3.57 nM at dopamine D2 receptor (setting [1]).

In the case of `CCc1ccccc1-c1cc(N2CCN(CCO)CC2)cc(C(F)CC)c1Cl` (centres unmarked) [Example 218, 1-(2-Hydroxyethyl)-4-[3-(2-ethylphenyl)-4-chloro-5-(1-fluoropropyl)]phenylpiperazine], the Ki at serotonin S2 receptor stood at 30.1 nM; at dopamine D2 receptor (setting [1]), 5.39 nM.

With `CC[C@@H](F)c1cc(N2CCN(CCO)CC2)cc(-c2ccccc2C(F)(F)F)c1Cl` [Example 219, 1-(2-Hydroxyethyl)-4-{3-(2-trifluoromethylphenyl)-4-chloro-5-[1-(R)-fluoropropyl]}phenylpiperazine], the Ki at serotonin S2 receptor came out at 151 nM; on dopamine D2 receptor (setting [1]), 5.54 nM.
